Measurements from ChEMBL document CHEMBL5537205, “Discovery of D25, a Potent and Selective MNK Inhibitor for Sepsis-Associated Acute Spleen Injury” (J Med Chem, 2024).
Calls of active or inactive are those of the source. No cut-off for these calls is given here.

Legend:
Mus musculus [1] = test: Antiinflammatory activity in LPS-induced BALB/c sepsis mouse model assessed as decrease in serum AST level at 10 to 20 mg/kg, po preadministered with compound for 14 days followed by LPS stimulation and measured after 6 hrs; assay type: functional, organism-based; conditions: dose 10-20 mg/kg, time 342.0 hrs
Mus musculus [2] = test: Antiinflammatory activity in LPS-induced BALB/c sepsis mouse model assessed as decrease in phosphorylated eIF4E level in spleen at 10 to 20 mg/kg, po preadministered with compound for 14 days followed by LPS stimulation and measured after 6 hrs by Western blot analysis; assay type: functional, organism-based; conditions: dose 10-20 mg/kg, time 342.0 hrs
[3] = biological target: T1, MAP kinase-interacting serine/threonine-protein kinase 1 (Homo sapiens, UniProt Q9BUB5); test: Inhibition of MNK1 (unknown origin) incubated for 60 mins in presence of ATP by HTRF assay
Target sequence in this assay (Q9BUB5 whole entry): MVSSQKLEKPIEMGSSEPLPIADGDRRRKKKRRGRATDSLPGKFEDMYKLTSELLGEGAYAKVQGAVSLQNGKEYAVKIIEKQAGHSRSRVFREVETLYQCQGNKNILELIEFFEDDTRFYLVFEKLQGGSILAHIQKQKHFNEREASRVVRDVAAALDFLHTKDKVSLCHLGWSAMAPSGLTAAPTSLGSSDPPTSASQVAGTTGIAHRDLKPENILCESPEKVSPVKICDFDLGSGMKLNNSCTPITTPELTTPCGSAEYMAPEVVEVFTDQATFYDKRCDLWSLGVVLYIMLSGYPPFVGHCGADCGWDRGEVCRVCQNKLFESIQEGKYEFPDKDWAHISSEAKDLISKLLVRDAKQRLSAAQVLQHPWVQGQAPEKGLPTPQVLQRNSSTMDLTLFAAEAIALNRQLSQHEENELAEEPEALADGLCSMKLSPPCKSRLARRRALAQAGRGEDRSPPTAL

Mus musculus [4] = test: Antiinflammatory activity in LPS-induced BALB/c sepsis mouse model assessed as increase in GSH level in serum at 20 mg/kg, po preadministered with compound for 14 days followed by LPS stimulation and measured after 6 hrs; assay type: functional, organism-based; conditions: time 342.0 hrs
[5] = Oral bioavailability in Sprague-Dawley rat at 20 mg/kg measured after 48 hrs; assay type: ADME, organism-based; conditions: in vivo
Mus musculus [6] = test: Antiinflammatory activity in LPS-induced BALB/c sepsis mouse model assessed as reversal of LPS-induced spleen […] index at 20 mg/kg, po preadministered with compound for 14 days followed by LPS stimulation and measured after 6 hrs; assay type: functional, organism-based; conditions: time 342.0 hrs
Mus musculus [7] = test: Antiinflammatory activity in LPS-induced BALB/c sepsis mouse model assessed as decrease in serum ALT level at 10 to 20 mg/kg, po preadministered with compound for 14 days followed by LPS stimulation and measured after 6 hrs; assay type: functional, organism-based; conditions: dose 10-20 mg/kg, time 342.0 hrs
RAW264.7 [8] = test: Antiinflammatory activity against LPS-induced mouse RAW264.7 cells assessed as decrease in IL-6 expression at 10 to 20 uM by Western blot analysis; assay type: functional, cell-based; conditions: dose 10-20 µM
Mus musculus [9] = test: Antiinflammatory activity in LPS-induced BALB/c sepsis mouse model assessed as decrease in inflammatory cells in spleen at 10 to 20 mg/kg, po preadministered with compound for 14 days followed by LPS stimulation and measured after 6 hrs by H&E staining based analysis; assay type: functional, organism-based; conditions: dose 10-20 mg/kg, time 342.0 hrs
Mus musculus [10] = test: Antiinflammatory activity in LPS-induced BALB/c sepsis mouse model assessed as reversal of LPS-induced liver […] index at 20 mg/kg, po preadministered with compound for 14 days followed by LPS stimulation and measured after 6 hrs; assay type: functional, organism-based; conditions: time 342.0 hrs
Mus musculus [11] = test: Antiinflammatory activity in LPS-induced BALB/c sepsis mouse model assessed as decrease in MDA level in serum at 20 mg/kg, po preadministered with compound for 14 days followed by LPS stimulation and measured after 6 hrs; assay type: functional, organism-based; conditions: time 342.0 hrs
Mus musculus [12] = test: Antiinflammatory activity in LPS-induced BALB/c sepsis mouse model assessed as decrease in TNF-alpha level in spleen at 10 to 20 mg/kg, po preadministered with compound for 14 days followed by LPS stimulation and measured after 6 hrs by Western blot analysis; assay type: functional, organism-based; conditions: dose 10-20 mg/kg, time 342.0 hrs
RAW264.7 [13] = test: Antiinflammatory activity in LPS-induced mouse RAW264.7 cells assessed as increase in Arg1 protein expression by Western blot analysis; assay type: functional, cell-based; conditions: dose <= 20.0 µM
[14] = biological target: MAP kinase-interacting serine/threonine-protein kinase 2 (Homo sapiens, UniProt Q9HBH9); test: Inhibition of MNK2 (unknown origin) incubated for 60 mins in presence of ATP by HTRF assay
Mus musculus [15] = test: Antiinflammatory activity in LPS-induced BALB/c sepsis mouse model assessed as decrease in serum creatinine level at 10 to 20 mg/kg, po preadministered with compound for 14 days followed by LPS stimulation and measured after 6 hrs; assay type: functional, organism-based; conditions: dose 10-20 mg/kg, time 342.0 hrs
[16] = biological target: T1, MAP kinase-interacting serine/threonine-protein kinase 1; test: Inhibition of MNK1 (unknown origin) at 1 uM relative to control
Target sequence in this assay (Q9BUB5 whole entry, looked up): as the sequence (Q9BUB5 whole entry) above

[17] = Half-life in Sprague-Dawley rat at 5 mg/kg, iv measured after 48 hrs; assay type: ADME, organism-based; conditions: in vivo
[18] = AUC (0 to t) in Sprague-Dawley rat at 20 mg/kg, po measured after 48 hrs; assay type: ADME, organism-based; conditions: in vivo
[19] = AUC (0 to t) in Sprague-Dawley rat at 5 mg/kg, iv measured after 48 hrs; assay type: ADME, organism-based; conditions: in vivo
[20] = Cmax in Sprague-Dawley rat at 20 mg/kg, po measured after 48 hrs; assay type: ADME, organism-based; conditions: in vivo
Mus musculus [21] = test: Antiinflammatory activity in LPS-induced BALB/c sepsis mouse model assessed as reversal of LPS-induced kidney renal index at 20 mg/kg, po preadministered with compound for 14 days followed by LPS stimulation and measured after 6 hrs; assay type: functional, organism-based; conditions: time 342.0 hrs
RAW264.7 [22] = test: Antiinflammatory activity against LPS-induced mouse RAW264.7 cells assessed as decrease in iNOS expression at 10 to 20 uM by Western blot analysis; assay type: functional, cell-based; conditions: dose 10-20 µM
Mus musculus [23] = test: Antiinflammatory activity in LPS-induced BALB/c sepsis mouse model assessed as decrease in iNOS level in spleen at 10 to 20 mg/kg, po preadministered with compound for 14 days followed by LPS stimulation and measured after 6 hrs by Western blot analysis; assay type: functional, organism-based; conditions: dose 10-20 mg/kg, time 342.0 hrs
Mus musculus [24] = test: Antiinflammatory activity in LPS-induced BALB/c sepsis mouse model assessed as decrease in volume of spleen nucleus at 10 to 20 mg/kg, po preadministered with compound for 14 days followed by LPS stimulation and measured after 6 hrs by H&E staining based analysis; assay type: functional, organism-based; conditions: dose 10-20 mg/kg, time 342.0 hrs
Mus musculus [25] = test: Antiinflammatory activity in LPS-induced BALB/c sepsis mouse model assessed as decrease in COX-2 level in spleen at 10 to 20 mg/kg, po preadministered with compound for 14 days followed by LPS stimulation and measured after 6 hrs by Western blot analysis; assay type: functional, organism-based; conditions: dose 10-20 mg/kg, time 342.0 hrs
Mus musculus [26] = test: Antiinflammatory activity in LPS-induced BALB/c sepsis mouse model assessed as decrease in serum IL-1beta level at 20 mg/kg, po preadministered with compound for 14 days followed by LPS stimulation and measured after 6 hrs by ELISA; assay type: functional, organism-based; conditions: time 342.0 hrs
Mus musculus [27] = test: Antiinflammatory activity in LPS-induced BALB/c sepsis mouse model assessed as decrease in serum BUN level at 10 to 20 mg/kg, po preadministered with compound for 14 days followed by LPS stimulation and measured after 6 hrs; assay type: functional, organism-based; conditions: dose 10-20 mg/kg, time 342.0 hrs
RAW264.7 [28] = test: Antiinflammatory activity against LPS-induced mouse RAW264.7 cells assessed as decrease in phosphorylated eIF4E expression at 10 to 20 uM by Western blot analysis; assay type: functional, cell-based; conditions: dose 10-20 µM
MV4-11 [29] = test: Antiproliferative activity against human MV4-11 cells assessed as inhibition of cell proliferation incubated for 48 hrs by CCK8 assay; assay type: functional, cell-based; conditions: MV4-11, 48 h
MV4-11 [30] = test: Antiproliferative activity against human MV4-11 cells assessed as inhibition of cell proliferation at 20 uM incubated for 48 hrs by CCK8 assay relative to control; assay type: functional
RAW264.7 [31] = test: Antiinflammatory activity in LPS-induced mouse RAW264.7 cells assessed as reduction in ROS level at 5 to 20 uM pretreated with compound followed by LPS stimulation and measured after 1 hrs by flow cytometric analysis; assay type: functional, cell-based; conditions: dose 5-20 µM
[32] = Clearance in Sprague-Dawley rat at 5 mg/kg, iv measured after 48 hrs; assay type: ADME, organism-based; conditions: in vivo
Mus musculus [33] = test: Antiinflammatory activity in LPS-induced BALB/c sepsis mouse model assessed as decrease in IL-6 level in spleen at 10 to 20 mg/kg, po preadministered with compound for 14 days followed by LPS stimulation and measured after 6 hrs by Western blot analysis; assay type: functional, organism-based; conditions: dose 10-20 mg/kg, time 342.0 hrs

Sequence of MAP kinase-interacting serine/threonine-protein kinase 2 (Q9HBH9 whole entry): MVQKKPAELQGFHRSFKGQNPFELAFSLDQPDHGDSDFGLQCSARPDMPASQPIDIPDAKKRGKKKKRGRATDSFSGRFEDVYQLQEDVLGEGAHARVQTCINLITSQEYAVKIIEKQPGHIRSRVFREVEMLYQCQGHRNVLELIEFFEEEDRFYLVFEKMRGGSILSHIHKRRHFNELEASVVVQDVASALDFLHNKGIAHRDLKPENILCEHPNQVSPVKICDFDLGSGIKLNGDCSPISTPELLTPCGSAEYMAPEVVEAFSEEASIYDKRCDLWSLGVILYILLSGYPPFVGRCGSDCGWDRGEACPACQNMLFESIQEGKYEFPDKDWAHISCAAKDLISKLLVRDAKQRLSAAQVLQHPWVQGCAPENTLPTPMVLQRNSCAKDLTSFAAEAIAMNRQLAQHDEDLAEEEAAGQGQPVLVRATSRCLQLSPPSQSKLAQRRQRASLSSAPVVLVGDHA

IC50 [3]: 121 nM
F [5]: 1.16%
IC50 [14]: 135 nM
inhibition [16]: 88.3%
half-life [17]: 5.52 h
AUCt [18]: 755.3 ng·h/mL
AUCt [19]: 1618 ng·h/mL
Cmax [20]: 26.2 ng/mL
IC50 (MV4-11 [29]): 550 nM
clearance [32]: 52 mL/min/kg
SMILES: c1cc(-c2cc(C3CCNCC3)n[nH]2)c2cc[nH]c2n1
Activity (Mus musculus [1]): Active
Activity (Mus musculus [2]): Active
Activity (Mus musculus [4]): Active
Activity (Mus musculus [6]): Active
Activity (Mus musculus [7]): Active
Activity (RAW264.7 [8]): Active
Activity (Mus musculus [9]): Active
Activity (Mus musculus [10]): Active
Activity (Mus musculus [11]): Active
Activity (Mus musculus [12]): Active
Activity (RAW264.7 [13]): Dose-Dependent Effect
Activity (Mus musculus [15]): Active
Activity (Mus musculus [21]): Active
Activity (RAW264.7 [22]): Active
Activity (Mus musculus [23]): Active
Activity (Mus musculus [24]): Active
Activity (Mus musculus [25]): Active
Activity (Mus musculus [26]): Active
Activity (Mus musculus [27]): Active
Activity (RAW264.7 [28]): Active
inhibition at 20 µM (MV4-11 [30]): 98.5%
Activity (RAW264.7 [31]): Active
Activity (Mus musculus [33]): Active
